From patent US7659273B2, “Composition for accelerating bone fracture healing” (Mitsubishi Tanabe Pharma Corporation, priority 2001, dated 2010)

System: fibula fracture region
Experiment: Acceleration of fracture healing in normal rats, Compound (2) microspheres (Experimental Example 2)
Assay type: in vivo, rat
Conditions: Example 7 microspheres; for Fibula Bone Mineral Content / Fibula Bone Volume / Fibula Bone Mineral Density: 2 weeks after suturing; for Fibula Bone Mineral Density: DXA at fracture region; for Breaking Energy: 4 weeks after suturing, three-point bending test
Method: CD (SD) IGS rats (Charles River Japan, Inc.; male; 7-week-old) were housed for seven days at room temperature (23±2° C.) and 50±20% humidity. During the housing period, the rats were free to access commercially available food (from Oriental Bio; CE-2).
Under ether anesthesia, the left-lower legs of rats were shaved and sterilized with 70% aqueous ethanol; fibulas were exposed with scissors and cut with nail scissors (Natsume Seisakusyo; B17). The cut sections of the fibula were re-matched with tweezers. For the test groups (15 rats/group), the drug-containing microspheres prepared in Example 7, which contains 0.004, 0.02, 0.1 or 0.5 mg of Compound (2), were placed around the cutting site using spatula followed by suturing with silk thread. For the control group (15 rats/group), the same amount of drug-free microspheres prepared in Control Example 2 were placed around the cutting site using spatula followed by suturing with silk thread. Following the suturing, every animal was sterilized with 70% aqueous ethanol. Five rats at two weeks later and 10 rats at four weeks later were taken from each group and sacrificed by laparotomy with bleeding under ether anesthesia and the fibulas were excised.
The fibula excised at 2 weeks after suturing was subjected to DXA bone densitometer (from Aloka; DCS-600) to determine bone mineral density and bone mineral content at fracture region (scanning width: 1 mm).
The volume of fibula excised at 2 weeks after suturing was determined using Plethysmometer (Muromachi Kikai Co., Ltd.; TK-101).
The fibula excised at 4 weeks after suturing was subjected to a three-point bending test with bone strength tester (from Muromachi Kikai Co., Ltd.; TK-252C) to determine bone strength. Briefly, the fibula was supported by two supports apart from each other by 8 mm and the cut section was positioned at the middle of these supports, i.e., 4 mm apart from the respective two supports. Loading (3 mm/minute) from upper direction was kept on the middle point (fracture section) of fibula until fibula begins to fracture. The breaking force […] spent to break the bone was defined as the breaking energy.

Compound: CCOc1cc2cc(CO)c(CO)c(-c3ccnc(-n4nc(-c5cccnc5)c5ccccc5c4=O)c3)c2cc1OCC [Compound (2)]
- Fibula Bone Mineral Content (drug content 0.004 mg): 15.90 ± 1.88 mg
- Fibula Bone Volume (drug content 0.004 mg): 85.0 ± 8.14 µL
- Fibula Bone Mineral Density (drug content 0.004 mg): 46.18 ± 3.18 mg/cm^2
- Breaking Energy (drug content 0.004 mg): 2.66 ± 0.49 mJ
- Fibula Bone Mineral Content (drug content 0.02 mg): 19.86 ± 1.75 mg
- Fibula Bone Volume (drug content 0.02 mg): 97.6 ± 4.99 µL
- Fibula Bone Mineral Density (drug content 0.02 mg): 50.72 ± 2.68 mg/cm^2
- Breaking Energy (drug content 0.02 mg): 2.59 ± 0.55 mJ
- Fibula Bone Mineral Content (drug content 0.1 mg): 23.10 ± 2.72 mg
- Fibula Bone Volume (drug content 0.1 mg): 121.6 ± 13.76 µL
- Fibula Bone Mineral Density (drug content 0.1 mg): 56.06 ± 4.19 mg/cm^2
- Breaking Energy (drug content 0.1 mg): 3.15 ± 0.54 mJ
- Fibula Bone Mineral Content (drug content 0.5 mg): 23.24 ± 2.97 mg
- Fibula Bone Volume (drug content 0.5 mg): 132.2 ± 11.72 µL
- Fibula Bone Mineral Density (drug content 0.5 mg): 52.18 ± 4.36 mg/cm^2
- Breaking Energy (drug content 0.5 mg): 3.27 ± 0.61 mJ
